Measurements reported in ChEMBL document CHEMBL5728688, “Substituted pyridines as TYK2 inhibitors” (2021).

Biological target: Non-receptor tyrosine-protein kinase TYK2 (Homo sapiens, UniProt P29597)
Test: TYK2 JH2 Domain Binding Assay: DiscoverX's KINOMEscan™ is a popular platform for kinase profiling, frequently used in academic and industry witnessed by publications, therefore we selected this platform as a primary cell-free screening assay to determine the relative binding potency and guide chemistry SAR.Developed by DiscoverX, KINOMEscan™ employs proprietary active-site dependent competition binding assays to determine how compounds bind to kinases. KINOMEscan™ is based on a competition binding assay that quantitatively measures the ability of a compound to compete with an immobilized, active site directed ligand. The assay is performed by combining three components: DNA-tagged kinase; immobilized ligand; and a test compound. […] The liganded beads were blocked with excess biotin and washed with blocking buffer (SeaBlock (Pierce), 1% BSA, 0.05% Tween 20, 1 mM DTT) to remove unbound ligand and to reduce non-specific binding. […] Test compounds were prepared as 111× stocks in 100% DMSO. All test compounds were shipped to DiscoverX in DMSO with concentration of 10 mM. […] Each compound was tested in duplicate. […] The compounds were then diluted directly into the assays such that the final concentration of DMSO was 0.9%. All reactions performed in polypropylene 384-well plate. Each was a final volume of 0.02 ml. […] […]

Non-receptor tyrosine-protein kinase TYK2, sequence (P29597 whole entry, the tested form may be a part): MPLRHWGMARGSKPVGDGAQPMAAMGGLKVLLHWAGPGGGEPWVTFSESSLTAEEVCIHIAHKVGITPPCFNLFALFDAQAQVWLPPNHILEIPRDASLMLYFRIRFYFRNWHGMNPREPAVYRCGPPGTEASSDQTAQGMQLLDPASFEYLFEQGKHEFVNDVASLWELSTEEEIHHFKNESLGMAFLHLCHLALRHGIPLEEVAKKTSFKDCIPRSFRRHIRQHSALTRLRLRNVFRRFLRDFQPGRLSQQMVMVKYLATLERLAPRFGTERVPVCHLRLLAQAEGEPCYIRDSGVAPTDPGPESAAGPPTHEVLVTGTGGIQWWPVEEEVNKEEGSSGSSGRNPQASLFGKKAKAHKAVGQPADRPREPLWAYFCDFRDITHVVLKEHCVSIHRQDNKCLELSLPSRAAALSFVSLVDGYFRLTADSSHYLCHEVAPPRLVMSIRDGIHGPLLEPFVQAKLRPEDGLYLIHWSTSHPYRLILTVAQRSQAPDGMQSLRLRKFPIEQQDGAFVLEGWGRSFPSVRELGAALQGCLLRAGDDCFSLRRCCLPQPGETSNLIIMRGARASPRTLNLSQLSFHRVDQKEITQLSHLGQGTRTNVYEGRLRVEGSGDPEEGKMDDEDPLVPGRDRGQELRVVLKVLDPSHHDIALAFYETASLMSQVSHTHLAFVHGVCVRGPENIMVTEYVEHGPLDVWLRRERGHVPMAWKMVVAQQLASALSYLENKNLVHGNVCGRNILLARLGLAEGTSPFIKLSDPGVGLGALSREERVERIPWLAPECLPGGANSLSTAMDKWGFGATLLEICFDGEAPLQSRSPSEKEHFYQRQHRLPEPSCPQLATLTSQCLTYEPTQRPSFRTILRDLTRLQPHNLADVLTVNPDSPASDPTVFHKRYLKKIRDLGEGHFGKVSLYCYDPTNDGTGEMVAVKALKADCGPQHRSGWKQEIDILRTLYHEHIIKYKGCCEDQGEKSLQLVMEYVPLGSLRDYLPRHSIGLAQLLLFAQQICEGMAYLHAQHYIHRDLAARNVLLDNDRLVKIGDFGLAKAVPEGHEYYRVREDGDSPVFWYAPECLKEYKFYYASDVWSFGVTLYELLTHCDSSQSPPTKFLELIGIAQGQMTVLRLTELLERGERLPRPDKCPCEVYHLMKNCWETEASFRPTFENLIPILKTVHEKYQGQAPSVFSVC

Q: `CNC(=O)c1nnc(N2CCC(C)(C)C2=O)cc1Nc1cccc(-c2ncn(C)n2)c1OC` was tested. Which Kd did it give?
A: The Kd was less than 1 nM.
